Measurements as given in patent publication US10160771B2, “Hepatitis C virus inhibitors and uses thereof in preparation of drugs” (priority 2014, dated 2018).

How the values were obtained:
[1] = system: HCV genotype 1b (HCV-1b) replicon cells; experiment: HCV genotype 1b replicon luciferase assay (EC50); assay type: cell-based, hepatitis C virus genotype 1b (Con1 clone); conditions: 3 days, luciferase (Bright-Glo)
Experimental: (§1) The EC50 and CC50 values of anti-HCV compounds were determined by HCV genotype 1a (HCV-1a) and 1B (HCV-1b) stable transfer replication (replicon) cells. The source of genotype 1a replicon is H77 clones containing K1691R, K2040R and S2204I adaptive mutations. The source of genotype 1b replicon is Con1 clones containing E1202G, T1280I and K1846T adaptive mutations.
(§2) HCV 1a (HCV-1a) and 1b (HCV-1b) gene subtype replicon system contains the related HCV gene subtype non structural protein gene, G418 resistance gene NEO and luciferase gene, which results in that HCV related protein and luciferase can be stably expressed in cells. By detecting the level of expression of luciferase gene, the level of HCV replication can be determined. Therefore, the system is used as a model for screening the activity of anti-HCV compound in vitro.
(§3) HCV Replicon Cell Lines: HCV-1a and HCV-1b Cells
(§4) The compound powder was dissolved in 100% DMSO. Then the compound was diluted 5 times with 6 points, and added into the cell plate with Echo liquid handler. Ensure the final concentration of DMSO was 0.5%. Each compound was tested in double holes. Maximum initial concentration was 100, 10 or 1 nM, 5 times dilution, 6 points.
(§5) b) Cell Culture (HCV-1a or HCV-1b Replicon Cell):
(§6) 1) absorbing the culture supernatant of the cell culture and washing the cells with 10 mL PBS.
(§7) 2) adding preheated pancreatin to the washed cell culture flasks, rotating culture bottle to make the bottom of the culture bottle uniformly covered by pancreatin, then placed into 37° C., 5% CO2 incubator to digest.
(§8) 3) suspending cells in each T150 culture flask with 10-15 mL culture medium, absorbing 0.1 mL liquid and diluting 2 times by trypan blue solution as counted.
(§9) 4) diluting cells to 8×10^4/mL with the culture medium, adding the diluted cells into the compound-containing 96-well plate (Greiner, Cat.#655090) (100 μL/well, 8000 cells/well) with automatic liquid separator (Thermo Scientific). Then place into a 37° C., 5% CO2 incubator for 3 days. Cell control well: no compound, only containing 0.5% DMSO.
(§10) 6) then adding luciferase luminescence substrate Bright-Glo, after incubation for 5 minutes, detecting the luciferase activity by chemical luminescence detection system Envison (wavelength>700 nm); analyzing the anti-HCV inhibitory activity of the compounds according to luciferase data, which was used to calculate EC50 values.
(§11) The EC50 or CC50 values were obtained by nonlinear fitting analysis on inhibition percentage (inh %) data with GraphPad Prism software.

[2] = system: HCV genotype 1a (HCV-1a) replicon cells; experiment: HCV genotype 1a replicon luciferase assay (EC50); assay type: cell-based, hepatitis C virus genotype 1a (H77 clone); conditions: 3 days, luciferase (Bright-Glo)
Experimental: as §1, §2, §3, §4, §5, §6, §7, §8, §9, §10, §11

SMILES	EC50 ([1]; Hepatitis C virus, 72 h)	other results
COC(=O)N[C@H](C(=O)N1CCC[C@H]1c1ncc(-c2ccc3cc(-c4ccc(-c5cnc([C@@H]6C7CCC(O7)[C@@H]6C(=O)N(NC(=O)OC)C(C)C)[nH]5)cc4)ccc3c2)[nH]1)C(C)C (stereo partly shown) [AA_107]	10 to 100 nM	
COC(=O)NC(C(=O)[C@@H]1CCCCC1c1ncc(-c2ccc(-c3ccc4c(c3)cc3n4C(c4ccc(F)cc4)Oc4cc(-c5cnc([C@@H]6CCCN6C(=O)[C@@H](NC(=O)OC)C(C)C)[nH]5)ccc4-3)cc2)[nH]1)C(C)C (stereo partly shown) [AA_089]	1 to 10 nM	
COC(=O)CN(C(=O)[C@@H]1CCCCC1c1ncc(-c2ccc(-c3ccc(-c4cnc([C@@H]5CCCN5C(=O)[C@@H](NC(=O)OC)C(C)C)[nH]4)cc3)cc2)[nH]1)C(C)C (stereo partly shown) [AA_063]	1 to 10 nM	
COC(=O)N[C@H](C(=O)N[C@H]1C2CCC(C2)C1c1ncc(-c2ccc(-c3ccc(-c4cnc([C@@H]5CCCN5C(=O)[C@@H](NC(=O)OC)C(C)C)[nH]4)cc3)cc2)[nH]1)C(C)C (stereo partly shown) [AA_286]	0.001 to 0.1 nM	EC50 ([2]; Hepatitis C virus, 72 h): 10 to 100 nM
COC(=O)N[C@H](C(=O)N1CCC[C@H]1c1ccc(-c2ccc(-c3ccc(-c4cnc([C@@H]5CCCN5C(=O)[C@@H](NC(=O)OC)[C@@H](C)O)[nH]4)cc3)cc2)[nH]1)C(C)C [AG_099]	0.101 to 1 nM	EC50 ([2]; Hepatitis C virus, 72 h): 1 to 10 nM
COC(=O)N[C@H](C(=O)N1CCC[C@H]1c1ncc(-c2ccc(-c3ccc(-c4cnc([C@@H]5[C@H]6CC[C@H](C6)[C@H]5C(=O)NNC(C)=O)[nH]4)cc3)cc2)[nH]1)C(C)C [AA_289_ENDOA2]	0.101 to 1 nM	EC50 ([2]; Hepatitis C virus, 72 h): 10 to 100 nM
COC(=O)N[C@H](C(=O)N1CCC[C@H]1c1ncc(-c2ccc(-c3ccc(-c4cnc([C@@H]5[C@H]6CC[C@H](C6)[C@H]5C(=O)NN5CC[C@H](C)C5=O)[nH]4)cc3)cc2)[nH]1)C(C)C [AA_295_ENDOA2_B]	0.101 to 1 nM	EC50 ([2]; Hepatitis C virus, 72 h): 10 to 100 nM
COC(=O)N[C@H](C(=O)N1CCC[C@H]1c1ncc(-c2ccc(-c3ccc(-c4cnc([C@@H]5[C@H]6CC[C@H](C6)[C@H]5C(=O)N[C@@H](C)c5cccnc5F)[nH]4)cc3)cc2)[nH]1)C(C)C [AA_283_ENDOA2_B]	0.001 to 0.1 nM	EC50 ([2]; Hepatitis C virus, 72 h): 0.001 to 0.1 nM
COC(=O)N[C@H](C(=O)N1CCC[C@H]1c1ncc(-c2ccc(-c3ccc(-c4cnc([C@@H]5C6CCC(C6)[C@H]5C(=O)NC5(C(=O)NCC(F)F)CCCCC5)[nH]4)cc3)cc2)[nH]1)C(C)C (stereo partly shown) [AA_275]	0.001 to 0.1 nM	EC50 ([2]; Hepatitis C virus, 72 h): 10 to 100 nM
COC(=O)N[C@H](C(=O)N1CCC[C@H]1c1ncc(-c2ccc3cc(-c4ccc(-c5cnc([C@H]6CCCC[C@H]6C(=O)N(NC(=O)OC)C(C)C)[nH]5)cc4)ccc3c2)[nH]1)C(C)C [AA_090_B]	1 to 10 nM	
COC(=O)N[C@H](C(=O)N1CCC[C@H]1c1ccc(-c2ccc(-c3ccc(-c4cnc([C@@H]5CCCN5C(=O)C5(NC(=O)OC)CC5)[nH]4)cc3)cc2)[nH]1)C(C)C [AG_097]		EC50 [1]: 0.001 to 0.1 nM; EC50 [2]: 10 to 100 nM
COC(=O)N[C@H](C(=O)N1CCC[C@H]1c1ncc(-c2ccc(-c3ccc(-c4cnc(C5CCCC[C@H]5C(=O)N5CCOCC5)[nH]4)cc3)cc2)[nH]1)C(C)C (stereo partly shown) [AA_056]	1 to 10 nM	
COC(=O)N[C@H](C(=O)N1CCC[C@H]1c1ncc(-c2ccc(-c3ccc(-c4cnc([C@@H]5[C@H]6CC[C@H](C6)[C@H]5C(=O)NCc5cncc(F)c5)[nH]4)cc3)cc2)[nH]1)C(C)C [AA_287_ENDOA2]	0.001 to 0.1 nM	EC50 ([2]; Hepatitis C virus, 72 h): 0.101 to 1 nM
COC(=O)N[C@H](C(=O)N1CCC[C@H]1c1ncc(-c2ccc(-c3ccc(-c4cnc([C@@H]5[C@H]6CC[C@H](C6)[C@H]5C(=O)NCc5nccn5C)[nH]4)cc3)cc2)[nH]1)C(C)C [AA_288_ENDOA2]	0.001 to 0.1 nM	EC50 ([2]; Hepatitis C virus, 72 h): 1 to 10 nM
CCOC(=O)[C@@H](NC(=O)[C@@H]1[C@@H]2CC[C@@H](C2)[C@H]1c1ncc(-c2ccc(-c3ccc(-c4cnc([C@@H]5CCCN5C(=O)[C@@H](NC(=O)OC)C(C)C)[nH]4)cc3)cc2)[nH]1)C(C)C [AA_297_ENDOA2]	0.101 to 1 nM	EC50 ([2]; Hepatitis C virus, 72 h): 10 to 100 nM
COC(=O)NN(C(=O)C1C2CCC(O2)[C@H]1c1ncc(-c2ccc(-c3ccc4cc(-c5cnc(C6CCCC[C@H]6C(=O)N(NC(=O)OC)C(C)C)[nH]5)ccc4c3)cc2)[nH]1)C(C)C (stereo partly shown) [AA_092]	10 to 100 nM	
COC(=O)N[C@H](C(=O)N1CCC[C@H]1c1ncc(-c2ccc(-c3ccc([C@H](C)NC(=O)[C@H]4CCCC[C@H]4C(=O)N(NC(=O)OC)C(C)C)cc3)cc2)[nH]1)C(C)C [AA_097]	10 to 100 nM	
COC(=O)N[C@H](C(=O)N1CCC[C@H]1c1ncc(-c2ccc(-c3ccc(-c4cnc(C5CCCC[C@H]5C(=O)N5CCCCC5)[nH]4)cc3)cc2)[nH]1)C(C)C (stereo partly shown) [AA_057]	10 to 100 nM	

SMILES	EC50 ([1]; Hepatitis C virus, 72 h)	other results
COC(=O)N[C@H](C(=O)N1CCC[C@H]1c1ncc(-c2ccc(-c3ccc(-c4cnc(C5=C(C(=O)NC(C)C)CCC5)[nH]4)cc3)cc2)[nH]1)C(C)C [AA_027]	10 to 100 nM	
COC(=O)N[C@H](C(=O)N1CCC[C@H]1c1ncc(-c2ccc3cc(-c4ccc(-c5cnc([C@@H]6CCCC[C@@H]6C(=O)N(NC(=O)OC)C(C)C)[nH]5)cc4)ccc3c2)[nH]1)C(C)C [AA_090_A]	1 to 10 nM	
COC(=O)N[C@H](C(=O)N1CCC[C@H]1c1ncc(-c2ccc(-c3ccc(-c4cnc(C5C6C=CC(C6)[C@H]5C(=O)N(NC(=O)OC)C(C)C)[nH]4)cc3)cc2)[nH]1)C(C)C (stereo partly shown) [AA_032]	0.101 to 1 nM	
COC(=O)N[C@H](C(=O)N1CCC[C@H]1c1ncc(-c2ccc(-c3ccc(-c4cnc(C5=C(C(=O)N(CC(=O)O)C(C)C)CCC5)[nH]4)cc3)cc2)[nH]1)C(C)C [AA_047]	10 to 100 nM	
COC(=O)N[C@H](C(=O)N1CCC[C@H]1c1ncc(-c2ccc(-c3ccc(-c4cnc(C5CCCC[C@H]5C(=O)NCC5CC5)[nH]4)cc3)cc2)[nH]1)C(C)C (stereo partly shown) [AA_115]	1 to 10 nM	
COC(=O)N[C@H](C(=O)N1CCC[C@H]1c1ncc(-c2ccc(-c3ccc(-c4cnc(C5CCCC[C@H]5C(=O)N5CCCC5)[nH]4)cc3)cc2)[nH]1)C(C)C (stereo partly shown) [AA_055]	1 to 10 nM	
COC(=O)N[C@H](C(=O)N1CCC[C@H]1c1ncc(-c2ccc(-c3ccc(-c4cnc(C5CCCC[C@H]5C(=O)N5CCNC(=O)C5)[nH]4)cc3)cc2)[nH]1)C(C)C (stereo partly shown) [AA_054]	0.101 to 1 nM	
COC(=O)NC(C(=O)C1CCCCC1c1ncc(-c2ccc(-c3ccc(-c4cnc(C5CCCC[C@H]5C(=O)N(NC(=O)OC)C(C)C)[nH]4)cc3)cc2)[nH]1)C(C)C (stereo partly shown) [AA_029]	10 to 100 nM	
CNC(=O)CN(C(=O)C1=C(c2ncc(-c3ccc(-c4ccc(-c5cnc([C@@H]6CCCN6C(=O)[C@@H](NC(=O)OC)C(C)C)[nH]5)cc4)cc3)[nH]2)CCC1)C(C)C [AA_065]	1 to 10 nM	
COCCCNC(=O)[C@@H]1CCCCC1c1ncc(-c2ccc(-c3ccc(-c4cnc([C@@H]5CCCN5C(=O)[C@@H](NC(=O)OC)C(C)C)[nH]4)cc3)cc2)[nH]1 (stereo partly shown) [AA_116]	1 to 10 nM	
COC(=O)N[C@H](C(=O)N1CCC[C@H]1c1ncc(-c2ccc3cc(-c4cnc(C5CCCC[C@H]5C(=O)N(NC(=O)OC)C(C)C)[nH]4)ccc3c2)[nH]1)C(C)C (stereo partly shown) [AA_079]	10 to 100 nM	
COC(=O)N[C@H](C(=O)N1CCC[C@H]1c1ncc(-c2ccc(-c3ccc(-c4cnc(C5=C(C(=O)N(CC(=O)NC6CC6)C(C)C)CCC5)[nH]4)cc3)cc2)[nH]1)C(C)C [AA_064]	1 to 10 nM	
COC(=O)N[C@H](C(=O)N1CCC[C@H]1c1ncc(-c2ccc(-c3ccc([C@@H](C)NC(=O)[C@H]4CCCC[C@H]4C(=O)N(NC(=O)OC)C(C)C)cc3)cc2)[nH]1)C(C)C [AA_096]	10 to 100 nM	
COC(=O)N[C@H](C(=O)N1CCC[C@H]1c1ncc(-c2ccc(-c3ccc(-c4cnc(C5C6CCC(C6)[C@H]5C(=O)N(NC(=O)OC)C(C)C)[nH]4)cc3)cc2)[nH]1)C(C)C (stereo partly shown) [AA_016]		EC50 [1]: 0.101 to 1 nM
COC(=O)N[C@H](C(=O)N1CCC[C@H]1c1ncc(-c2ccc3cc(-c4ccc(-c5cnc([C@H]6C7CCC(O7)[C@H]6C(=O)N(NC(=O)OC)C(C)C)[nH]5)cc4)ccc3c2)[nH]1)C(C)C (stereo partly shown) [AA_106]	10 to 100 nM	
COC(=O)N[C@H](C(=O)N1CCC[C@H]1c1ncc(-c2ccc(-c3ccc(-c4cnc(C5C6CCC(O6)[C@H]5C(=O)N(NC(=O)OC)C(C)C)[nH]4)cc3)cc2)[nH]1)C(C)C (stereo partly shown) [AA_095]	1 to 10 nM	
COC(=O)NC(C(=O)N1CCC[C@H]1c1ncc(-c2ccc(-c3ccc4cc(-c5cnc(C6CCCC[C@H]6C(=O)N(NC(=O)OC)C(C)C)[nH]5)ccc4c3)cc2)[nH]1)C1CCOC1 (stereo partly shown) [AA_076]	1 to 10 nM	
COCCNC(=O)[C@@H]1CCCCC1c1ncc(-c2ccc(-c3ccc(-c4cnc([C@@H]5CCCN5C(=O)[C@@H](NC(=O)OC)C(C)C)[nH]4)cc3)cc2)[nH]1 (stereo partly shown) [AA_114]	1 to 10 nM	
